Where no end group is shown, it is not given here. The star is where a group is joined. Biotin = O=C1N[C@H]2[C@H](CS[C@H]2CCCCC(=O)*)N1

This experiment can be described thus: Peptide-mediated adhesion of streptavidin-coated gold particles on enamel, SEM. The class given is binding, bovine. The note with it: 20 μM peptide, then 50 nm streptavidin gold nanoparticles; SEM at 10000X. The method, then: Bovine enamel incisors were obtained from SE Dental (Baton Rouge, La.). Teeth are sectioned and cut into enamel slabs approx. 5 mm on each side using a DREMEL® saw with a diamond blade. The enamel blocks are cleaned and place each in a plastic microcentrifuge tube.
Each enamel block was incubated for 45 min in phosphate buffered saline with 0.1% TWEEN® 20 (PBST) and 1 mg/mL bovine serum albumin (BSA) at room temperature (22° C.). All blocks were rinsed with PBST twice while vortexing in the microcentrifuge tube. The peptides were first diluted to 10 mM in water and then a working concentration of 20 μM was prepared in PBST with 1 mg/mL BSA. Each sample was exposed to the peptide solution or a no peptide buffer control for 30 min at room temperature. The samples were slowly rotated during incubation. The enamel blocks were removed from the peptide solution and washed four times with PBST with vortexing.
50 nm gold nanoparticles functionalized with streptavidin were obtained from Nanocs Inc (New York, N.Y.) and diluted to 0.006% wt in PBST with 1 mg/mL BSA. All enamel samples were then exposed to the gold nanoparticle solution for 1 hr at room temperature with slow rotation. […]
Each enamel sample was examined with Electron Microscopy. […] Particles were counted per micrograph and the density of particle coverage was compared (Table 14).

Regarding TTYHYKNIYQESYQQRNPAVHHHHHH [DenP03-D], the “Particles per μm^2 at 10000X” value is 0.23 Particles per μm^2. The figure for “TTYHYKNIYQESYQQRNPAVK(Biotin) [DenP03-C]” is 1.75 Particles per μm^2.

For the origin of these results see patent US8354381B2, “Peptide compositions for oral care systems” (E I du Pont de Nemours and Company, priority 2009, dated 2013).
